Data on five compounds can be found in DBAASP.

Assay in all cases: ≥ marks a high value that may be exact or a test limit, other limits are often not marked, values filed in µg/mL are converted to µM
Assay [1] deals with Citrobacter freundii.
Assay [2] has as its system Salmonella enterica subsp. enterica serovar Paratyphi A.
Assay [3] has as its system Staphylococcus haemolyticus.
Assay [4] has as its system Klebsiella pneumoniae.
Assay [5] has as its system Proteus vulgaris ATCC 6380.
Assay [6] concerns Micrococcus luteus ATCC 9341.
In assay [7] the test system is Pseudomonas aeruginosa ATCC 9027.
Assay [8] concerns Escherichia coli ATCC 2592.
Assay [9] has as its system Staphylococcus aureus ATCC 6538.
The subject of assay [10] is Shigella flexneri ATCC 203.
The test system of assay [11] is Staphylococcus aureus.
In assay [12] the test system is Staphylococcus epidermidis ATCC 12228.
Assay [13] concerns Candida albicans ATCC 36232.
Assay [14] deals with Staphylococcus aureus NBRC 12732.
For assay [15], the system named is Saccharomyces cerevisiae NBRC 10217.
For assay [16], the system named is Escherichia coli NBRC 14237.
Assay [17] deals with Staphylococcus hominis ATCC 27844.
Assay [18] deals with Escherichia coli ATCC 25922.
Assay [19] relates to Enterococcus faecalis ATCC 2912.
In assay [20] the test system is Candida albicans ATCC 10231.
Assay [21] deals with Pseudomonas aeruginosa ATCC 15442.
In assay [22] the test system is Staphylococcus epidermidis 154.

Each structure is given as a SMILES string. Values after ≈ are worked out from the molar mass of the structure shown.

`CC(C)C[C@H](NC(=O)[C@H](CCCCN)NC(=O)[C@H](CC(C)C)NC(=O)[C@H](CCCCN)NC(=O)[C@H](CS)NC(=O)[C@H](CC(C)C)NC(=O)[C@H](Cc1c[nH]c2ccccc12)NC(=O)CNC(=O)[C@H](CCCCN)NC(=O)[C@H](CS)NC(=O)[C@@H]1CCCN1C(=O)[C@@H](N)CCCCN)C(=O)N[C@@H](CCCN=C(N)N)C(=O)O` [KPCKGWLCKLKLR]: the MIC in assay [1] worked out at 7.63 µM (≈ 12 µg/mL); in assay [2] it was 3.81 µM (≈ 6 µg/mL); in assay [3] it was 1.91 µM (≈ 3 µg/mL); in assay [4] it was 3.81 µM (≈ 6 µg/mL).

With `CC(C)[C@H](NC(=O)[C@H](CCCCN)NC(=O)[C@@H](N)CCCCN)C(=O)N[C@H](C(=O)N[C@@H](Cc1ccccc1)C(=O)N[C@@H](CCCCN)C(=O)N[C@@H](Cc1ccccc1)C(=O)N[C@@H](CCCCN)C(=O)N[C@@H](Cc1ccccc1)C(=O)N[C@@H](CCCCN)C(N)=O)C(C)C` [KKVVFKFKFK], the MIC was ≥ 77 µM in assay [5]; 0.601 µM (≈ 0.779 µg/mL) in assay [6]; 2.4 µM (≈ 3.12 µg/mL) in [7]; 2.4 µM (≈ 3.12 µg/mL) in assay [8]; 2.4 µM (≈ 3.12 µg/mL) in assay [9]; 2.4 µM (≈ 3.12 µg/mL) in assay [10]. Besides, the figures for the minimal inhibitory concentration (MIC) in [11], in [12] and in assay [13] were 4.81 µM (≈ 6.25 µg/mL), 0.601 µM (≈ 0.779 µg/mL) and 0.601 µM (≈ 0.779 µg/mL), respectively.

On to `CC(C)C[C@H](NC(=O)[C@H](CO)NC(=O)[C@H](CO)NC(=O)[C@H](CCCN=C(N)N)NC(=O)[C@H](CCCN=C(N)N)NC(=O)[C@H](CCCN=C(N)N)NC(=O)[C@H](CO)NC(=O)[C@H](CC(C)C)NC(=O)[C@H](Cc1c[nH]c2ccccc12)NC(=O)[C@@H](N)Cc1c[nH]c2ccccc12)C(=O)N[C@@H](Cc1ccccc1)C(=O)N[C@@H](Cc1ccc(O)cc1)C(=O)N[C@@H](Cc1c[nH]c2ccccc12)C(=O)N[C@@H](CCCN=C(N)N)C(=O)O` [WWLSRRRSSLFYWR], for which the MIC in [14] was found to be 3.12 µM (≈ 6.25 µg/mL); in assay [15], 12.5 µM (≈ 25 µg/mL); in assay [16], 3.12 µM (≈ 6.25 µg/mL).

Regarding `CSCC[C@H](NC(=O)[C@H](CCC(N)=O)NC(=O)[C@H](CO)NC(=O)CNC(=O)[C@H](CCCCN)NC(=O)[C@@H](N)CCCN=C(N)N)C(=O)NCC(=O)N[C@@H](CCCCN)C(=O)N[C@@H](CCCCN)C(=O)N[C@@H](CS)C(=O)N[C@@H](CCC(=O)O)C(=O)N[C@@H](CS)C(=O)N1CCC[C@H]1C(=O)O` [RKGSQMGKKCECP], the MIC in assay [17] was ≥ 40 µM; in assay [9], 3.2 µM (≈ 4.65 µg/mL); in [18] it was 13 µM (≈ 18.9 µg/mL); in [19] it was ≥ 40 µM; in [20], 3.2 µM (≈ 4.65 µg/mL); in assay [21], 13 µM (≈ 18.9 µg/mL).

For the compound `CC(C)C[C@H](NC(=O)[C@H](Cc1ccc(O)cc1)NC(=O)[C@H](Cc1ccc(O)cc1)NC(=O)CNC(=O)[C@H](Cc1c[nH]c2ccccc12)NC(=O)[C@H](CO)NC(=O)[C@H](CO)NC(=O)[C@H](Cc1c[nH]c2ccccc12)NC(=O)[C@H](CC(C)C)NC(=O)[C@H](CCCCN)NC(=O)[C@@H](NC(=O)[C@@H](NC(=O)[C@H](CC(C)C)NC(=O)[C@@H](N)CC(=O)O)[C@@H](C)O)[C@@H](C)O)C(=O)NCC(=O)N[C@@H](CCCCN)C(=O)N[C@@H](CCCCN)C(=O)N[C@@H](C)C(=O)N[C@@H](CCCN=C(N)N)C(=O)N[C@@H](Cc1c[nH]c2ccccc12)C(=O)N[C@@H](CC(N)=O)C(=O)N[C@@H](CC(C)C)C(=O)N[C@@H](CCCCN)C(=O)N[C@@H](Cc1cnc[nH]1)C(=O)N1CCC[C@H]1C(=O)N[C@@H](Cc1ccc(O)cc1)C(=O)N[C@H](C(=O)N[C@@H](CCC(N)=O)C(=O)N[C@@H](Cc1ccccc1)C(=O)O)C(C)C` [DLTTKLWSSWGYYLGKKARWNLKHPYVQF], the minimal inhibitory concentration (MIC) in assay [22] stood at 25 µM (≈ 89.7 µg/mL); in assay [12] it was 12.5 µM (≈ 44.8 µg/mL).

The term MIC denotes the lowest concentration that inhibits growth of the organism. Low values mean inhibition by little substance, high ones a need for much substance.
